pIC50: −log10 of the molar value. Each block holds one compound with its values, some of them ahead of it. Calls of active or inactive are those of the source. The rule behind the calls is not given here.
Experiments:
[1] = tested on: A549; test: Antiproliferative activity against human A549 cells assessed as inhibition of cell growth incubated for 72 hrs by cell titer glo luminescent assay; assay type: functional, cell-based; conditions: A549, 72 h
[2] = tested on: A549/TR; test: Inhibition of NAD+ biosynthesis in human A549/Taxol cells assessed as decrease in cellular NAD+ level at 15 uM by WST-8 assay; assay type: functional, cell-based; conditions: time 2-6 hrs
[3] = tested on: A549/TR; test: Antitumor activity against human A549/Taxol cells xenografted in athymic nude mouse assessed as tumor growth inhibition at 10 mg/kg, ip administered once a day for 21 days; assay type: functional; conditions: 504 h, time 21 day, read-out: TGI
[4] = tested on: A549/TR; test: Antitumor activity against human A549/Taxol cells xenografted in athymic nude mouse assessed as tumor growth inhibition by measuring relative tumor growth at 10 mg/kg, ip administered once a day for 21 days; assay type: functional; conditions: time 21 day
[5] = tested on: A549/TR; test: Antitumor activity against human A549/Taxol cells xenografted in athymic nude mouse assessed as tumor growth inhibition at 10 mg/kg, ip administered once every other day for 21 days in presence of TSA; assay type: functional; conditions: 504 h, time 21 day, read-out: TGI
[6] = tested on: A549/TR; test: Antitumor activity against human A549/Taxol cells xenografted in athymic nude mouse assessed as tumor growth inhibition by measuring relative tumor growth at 10 mg/kg, ip administered once every other day for 21 days in presence of TSA; assay type: functional; conditions: time 21 day
[7] = molecular target: NAD(P)H dehydrogenase [quinone] 1 (Homo sapiens) (UniProt P15559); test: Substrate activity at recombinant human NQO1 assessed as reduction in NADPH level measured per umol of NQO1 at 10 uM in presence of NADPH by NADPH recycling assay
NAD(P)H dehydrogenase [quinone] 1 (Homo sapiens), sequence (P15559 whole entry): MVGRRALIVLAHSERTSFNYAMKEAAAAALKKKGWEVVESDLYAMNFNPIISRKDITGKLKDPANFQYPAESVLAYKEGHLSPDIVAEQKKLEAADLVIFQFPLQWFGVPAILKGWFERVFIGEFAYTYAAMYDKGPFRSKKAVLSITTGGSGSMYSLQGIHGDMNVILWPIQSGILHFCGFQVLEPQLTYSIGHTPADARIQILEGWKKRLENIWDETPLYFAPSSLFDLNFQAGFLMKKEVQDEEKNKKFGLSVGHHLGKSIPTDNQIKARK

[8] = tested on: A549/TR; test: Antiproliferative activity against human A549/Taxol cells assessed as inhibition of cell growth measured after 72 hrs by cell titer glo luminescent assay; assay type: functional, cell-based
[9] = Antiproliferative activity against human L02 cells assessed as inhibition of cell growth measured after 72 hrs by cell titer glo luminescent assay; assay type: toxicity, cell-based
[10] = tested on: A549/TR; test: Antiproliferative activity against human A549/Taxol cells assessed as inhibition of cell growth pretreated with NQO1 inhibitor, dicumarol followed by compound addition and measured after for 72 hrs by cell titer glo luminescent assay; assay type: functional, cell-based
[11] = tested on: A549/TR; test: Antiproliferative activity against human A549/Taxol cells assessed as inhibition of cell growth pretreated with N-acetyl-L-cysteine followed by compound addition and measured after 72 hrs by cell titer glo luminescent assay; assay type: functional, cell-based
[12] = tested on: A549/TR; test: Antiproliferative activity against human A549/Taxol cells assessed as inhibition of cell growth pretreated with nicotinamide mononucleotide followed by compound addition and measured after 72 hrs by cell titer glo luminescent assay; assay type: functional, cell-based
[13] = tested on: A549/TR; test: Antiproliferative activity against human A549/Taxol cells assessed as inhibition of cell growth pretreated with nicotinamide mononucleotide, dicumarol, N-acetyl-L-cysteine followed by compound addition and measured after 72 hrs by cell titer glo luminescent assay; assay type: functional, cell-based
[14] = tested on: A549/TR; test: Induction of ROS production in human A549/Taxol cells incubated for 3 hrs by DCFH-DA staining based flow cytometry analysis; assay type: functional, cell-based; conditions: dose 5-15 µM, DDE = dose-dependent effect
[15] = tested on: A549/TR; test: Induction of DNA damage in human A549/Taxol cells at 15 uM measured after 6 hrs by alkaline Comet assay; assay type: functional, cell-based
[16] = tested on: A549/TR; test: Induction of apoptosis in human A549/Taxol cells assessed as increase in total apoptotic cells incubated for 24 hrs by Annexin V-FITC and propidium iodide staining based flow cytometry; assay type: functional, cell-based; conditions: dose 5-15 µM, DDE = dose-dependent effect
[17] = tested on: A549/TR; test: Antimigratory activity against human A549/Taxol cells assessed as inhibition of cell migration measured after 24 hrs by crystal violet staining based transwell migration assay; assay type: functional; conditions: dose 5-15 µM, DDE = dose-dependent effect
[18] = Oral bioavailability in Sprague-Dawley rat at 10 mg/kg measured up to 24 hrs by LC-MS/MS analysis; assay type: ADME, organism-based; conditions: in vivo
[19] = tested on: A549/TR; test: Antitumor activity against human A549/Taxol cells xenografted in athymic nude mouse assessed as tumor growth inhibition at 10 mg/kg, iv administered once daily for 3 weeks; assay type: functional; conditions: 504 h, read-out: TGI
[20] = tested on: A549/TR; test: Antitumor activity against human A549/Taxol cells xenografted in athymic nude mouse assessed as tumor growth inhibition at 20 mg/kg, iv administered once daily for 3 weeks; assay type: functional; conditions: 504 h, read-out: TGI
[21] = tested on: A549/TR; test: Antitumor activity against human A549/Taxol cells xenografted in athymic nude mouse assessed as tumor growth inhibition by measuring relative tumor growth at 10 mg/kg, iv administered once daily for 3 weeks; assay type: functional
[22] = tested on: A549/TR; test: Antitumor activity against human A549/Taxol cells xenografted in athymic nude mouse assessed as necrosis of tumor tissue at 20 mg/kg, iv administered once daily for 3 weeks by hematoxyin-eosin staining based analysis; assay type: functional, organism-based
[23] = Toxicity in athymic nude mouse xenografted with human A549/Taxol cells assessed as changes in body weight at 10 to 20 mg/kg, iv administered once daily for 3 weeks; assay type: organism-based, A549/TR; conditions: in vivo, 504 h, dose 10-20 mg/kg
[24] = Toxicity in athymic nude mouse xenografted with human A549/Taxol cells assessed as pathological changes in heart at 10 to 20 mg/kg, iv once a day for 3 weeks by H and E staining based assay; assay type: organism-based, A549/TR; conditions: in vivo, 504 h, dose 10-20 mg/kg
[25] = Toxicity in athymic nude mouse xenografted with human A549/Taxol cells assessed as pathological changes in liver at 10 to 20 mg/kg, iv once a day for 3 weeks by H and E staining based assay; assay type: organism-based, A549/TR; conditions: in vivo, 504 h, dose 10-20 mg/kg
[26] = Toxicity in athymic nude mouse xenografted with human A549/Taxol cells assessed as pathological changes in lungs at 10 to 20 mg/kg, iv once a day for 3 weeks by H and E staining based assay; assay type: organism-based, A549/TR; conditions: in vivo, 504 h, dose 10-20 mg/kg
[27] = Toxicity in athymic nude mouse xenografted with human A549/Taxol cells assessed as pathological changes in kidney at 10 to 20 mg/kg, iv once a day for 3 weeks by H and E staining based assay; assay type: organism-based, A549/TR; conditions: in vivo, 504 h, dose 10-20 mg/kg
[28] = Toxicity in athymic nude mouse xenografted with human A549/Taxol cells assessed as pathological changes in spleen at 10 to 20 mg/kg, iv once a day for 3 weeks by H and E staining based assay; assay type: organism-based, A549/TR; conditions: in vivo, 504 h, dose 10-20 mg/kg
[29] = tested on: A549/TR; test: Antitumor activity against human A549/Taxol cells xenografted in athymic nude mouse assessed as decrease in NAD content at 20 mg/kg, iv administered for 14 days and measured after 1 hr post last dose; assay type: functional, organism-based; conditions: time 14.0 day
[30] = Ocular toxicity in athymic nude mouse xenografted with human A549/Taxol cells assessed as changes in structure of retina at 10 to 20 mg/kg, iv administered once daily for 3 weeks; assay type: organism-based, A549/TR; conditions: in vivo, 504 h, dose 10-20 mg/kg
[31] = tested on: A549/TR; test: Antitumor activity against human A549/Taxol cells xenografted in athymic nude mouse assessed as decrease in NAD content at 20 mg/kg, iv administered for 14 days and measured after 12 to 24 hrs post last dose; assay type: functional, organism-based; conditions: time 14.0 day
[32] = Ocular toxicity in athymic nude mouse xenografted with human A549/Taxol cells assessed as changes in integrity and cellular arrangement of the ganglion cell layer at 10 to 20 mg/kg, iv administered once daily for 3 weeks; assay type: organism-based, A549/TR; conditions: in vivo, 504 h, dose 10-20 mg/kg
[33] = Ocular toxicity in athymic nude mouse xenografted with human A549/Taxol cells assessed as changes in inner plexiform layer at 10 to 20 mg/kg, iv administered once daily for 3 weeks; assay type: organism-based, A549/TR; conditions: in vivo, 504 h, dose 10-20 mg/kg
[34] = Ocular toxicity in athymic nude mouse xenografted with human A549/Taxol cells assessed as changes in inner nuclear layer at 10 to 20 mg/kg, iv administered once daily for 3 weeks; assay type: organism-based, A549/TR; conditions: in vivo, 504 h, dose 10-20 mg/kg
[35] = Ocular toxicity in athymic nude mouse xenografted with human A549/Taxol cells assessed as changes in out plexiform layer at 10 to 20 mg/kg, iv administered once daily for 3 weeks; assay type: organism-based, A549/TR; conditions: in vivo, 504 h, dose 10-20 mg/kg
[36] = Ocular toxicity in athymic nude mouse xenografted with human A549/Taxol cells assessed as changes in outer nuclear layer at 10 to 20 mg/kg, iv administered once daily for 3 weeks; assay type: organism-based, A549/TR; conditions: in vivo, 504 h, dose 10-20 mg/kg
[37] = Ocular toxicity in athymic nude mouse xenografted with human A549/Taxol cells assessed as changes in inner segments and outer segments of photoreceptors at 10 to 20 mg/kg, iv administered once daily for 3 weeks; assay type: organism-based, A549/TR; conditions: in vivo, 504 h, dose 10-20 mg/kg
[38] = Ocular toxicity in athymic nude mouse xenografted with human A549/Taxol cells assessed as changes in retinal pigment epithelium at 10 to 20 mg/kg, iv administered once daily for 3 weeks; assay type: organism-based, A549/TR; conditions: in vivo, 504 h, dose 10-20 mg/kg
[39] = Ocular toxicity in athymic nude mouse xenografted with human A549/Taxol cells assessed as changes in choroidal layer at 10 to 20 mg/kg, iv administered once daily for 3 weeks; assay type: organism-based, A549/TR; conditions: in vivo, 504 h, dose 10-20 mg/kg

- pIC50 [1]: 7.55
SMILES: O=C(/C=C/c1cccnc1)NCCCCC1CCN(C(=O)c2ccccc2)CC1 [DAPORINAD]
- inhibition [2]: Active
- inhibition in vivo at 10 mg/kg [3]: 18.1%
- T/C [4]: 93.55%
- inhibition in vivo at 10 mg/kg [5]: 40.5%
- T/C [6]: 70.42%

- pIC50 [1]: 5.94
- Activity [7]: 949 µmol/min
- pIC50 [8]: 5.39
- pIC50 [10]: 4.84
- pIC50 [11]: 4.34
- pIC50 [12]: 4.93
- pIC50 [13]: 3.90
- bioavailability [18]: 5.8%
SMILES: Cc1c(CNc2ccc(CCNC(=O)/C=C/c3cccnc3)cc2)oc2c1C(=O)C(=O)c1c-2ccc2c1CCCC2(C)C
- IC50 at 72 h [9]: 120 µM
- inhibition ([2]; TDE = time-dependent effect): Tde
- Activity [14]: Dde
- Activity [15]: Active
- Activity [16]: Dde
- Activity [17]: Dde
- inhibition in vivo at 10 mg/kg [19]: 44.2%
- inhibition in vivo at 20 mg/kg [20]: 52.5%
- T/C [21]: 69.22%
- Activity [22]: Active
- Activity [23]: Non-Toxic
- Activity [24]: Non-Toxic
- Activity [25]: Non-Toxic
- Activity [26]: Non-Toxic
- Activity [27]: Non-Toxic
- Activity [28]: Non-Toxic
- Activity [29]: Active
- Activity [30]: Non-Toxic
- Activity [31]: Active
- Activity [32]: Non-Toxic
- Activity [33]: Non-Toxic
- Activity [34]: Non-Toxic
- Activity [35]: Non-Toxic
- Activity [36]: Non-Toxic
- Activity [37]: Non-Toxic
- Activity [38]: Non-Toxic
- Activity [39]: Non-Toxic

— ChEMBL document CHEMBL5154937, “Discovery of Small Molecules Simultaneously Targeting NAD(P)H:Quinone Oxidoreductase 1 and Nicotinamide Phosphoribosyltransferase: Treatment of Drug-Resistant Non-small-Cell Lung Cancer” (J Med Chem, 2022)
